# Laboratory results as given in article PMC11726150, “Pre‐ADMET studies of 5‐(3′,4′‐dihydroxyphenyl)‐γ‐valerolactone, the bioactive intestinal metabolite of proanthocyanidins” (Archiv Der Pharmazie, 2024).
# “Also recorded” adds a separate entry of the source.
# Key:
# PXR = biological target: T1, PXR (Homo sapiens, UniProt O75469); assay type: cell-based; design: expressed in transfected cells; host or cells: HepG2 and LS174T cells, transient electroporation; conditions: HepG2 cells, all concentrations tested (1.5–50 μM), 24 h
# T1 sequence (O75469 1-434): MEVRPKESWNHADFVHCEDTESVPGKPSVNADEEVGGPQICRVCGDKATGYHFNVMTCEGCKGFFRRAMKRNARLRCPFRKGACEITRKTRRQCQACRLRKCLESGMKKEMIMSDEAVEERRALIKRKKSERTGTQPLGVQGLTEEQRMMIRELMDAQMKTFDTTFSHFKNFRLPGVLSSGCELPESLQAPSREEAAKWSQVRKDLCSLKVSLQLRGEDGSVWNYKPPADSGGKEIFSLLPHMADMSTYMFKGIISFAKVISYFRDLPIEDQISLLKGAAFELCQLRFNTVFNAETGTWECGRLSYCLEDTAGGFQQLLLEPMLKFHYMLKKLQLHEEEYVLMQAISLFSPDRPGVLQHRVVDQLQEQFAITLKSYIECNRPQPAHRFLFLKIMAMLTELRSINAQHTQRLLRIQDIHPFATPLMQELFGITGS
# Protocol: The PXR activation potential of VL was determined in transiently transfected HepG2 and LS174T cells as described earlier.^[ [50] ^] In brief, 24‐h‐old cells having 70%−80% confluency were trypsinized and transfected with pSG5‐hPXR (25 μg) and PCR‐5 (25 μg) plasmid DNA by electroporation at 180 V (1 pulse for 70 ms). Cells were incubated at room temperature for 8 min and floating dead cells were carefully removed. Cells were seeded in 96‐well plates at a density of 50,000 cells/well. […] Following 24 h of incubation, the culture medium was aspirated and 40 μL of luciferase reagent (Promega Corporation) was added to each well. Luminescence was measured using a Spectramax M5 plate reader (Molecular Devices) and the fold increase in luciferase activity among sample‐treated cells was calculated in comparison with the vehicle‐treated (DMSO) cells.
# [1] = Metabolic stability assay with human S9 liver fraction; assay type: in vitro ADME
# Protocol: HLMs and S9 fractions were used to determine, respectively, phases I and II metabolism of VL. A mixture of the activating cofactors (NADP^+ and UDPGA) and enzymes (G6PO4 and G6PDH) were used to stimulate the metabolism; in the microsome assay UDPGA was not needed. The final concentrations of cofactors NADPH and UDPGA were 1 mM each, while for the enzymes G6PO4 and G6PDH were 10 mM and 2 U/mL, respectively. The phosphate buffer was prepared as a 100 mM solution, pH 7.4, containing 10 mM magnesium chloride in deionized water. Testosterone and 7‐hydroxycoumarin were used as positive controls for phases I and II metabolism, and stock reference solutions of controls and VL were prepared, respectively, at 5 mM and 10 mM concentration in DMSO, and then diluted to a final test concentration of 10 µM. S9 fraction or microsome, final concentration 1 mg/mL, were preincubated with a test compound for 5 min at 37°C in the phosphate buffer, pH 7.4, and then the reactions were initiated by adding the cofactor mixture. A negative control sample was prepared replacing the reaction enzymes with water in the presence of a reaction mixture and test compound VL. At time points 0, 10, 20, 30, 45, 60, 90, and 120 min, 100 µL aliquots of the sample mixture were removed and quenched by the addition of two volumes of ice‐cold 50:50 ACN:MeOH containing the internal standard (cinnamic acid‐d6, 300 ng/mL final concentration). The quenched samples were then stored at −80°C overnight and defrosted before analysis, sonicated for 10 min, and centrifuged at 14,000 rpm for 15 min at 4°C to sediment the precipitated proteins before injection onto ultra performance liquid chromatography‐mass/mass (UPLC‐MS/MS) for analysis. T ½ was calculated using the interpolating point method using the nonlinear fit option of GraphPad Prism 8, while intrinsic clearance CL'int (mL/min/kg) was calculated as written in Equation (4) and as reported previously:^[ [23] ^] (4) CL^′int=0.693×Dose/T½.
# MTT cell viability assay = assay type: cell-based, canine; conditions: dog, Wt-MDCK cells, 1.5–50 µM, 6 h exposure, read-out: cells remaining viable
# Protocol: The effect of test samples on cell viability was measured using an MTT assay. Briefly, exponentially growing 2 × 10^4 cells/200 μL were seeded in 96‐well plates and allowed to grow until reaching their differentiation state. Cells were treated with different concentrations of VL (50–1.6 µM) and positive control camptothecin (30–1 μM) serially diluted in serum‐free medium. After incubation, 10 μL of MTT dye (5 mg/mL stock in PBS) was added to each well, and plates were additionally incubated for 4 h. Further, media were aspirated, and cells were washed with 100 μL of phosphate buffer saline. The formazan blue crystals formed by viable cells were dissolved in 150 μL of DMSO, and the absorbance was measured at 580 nm on a Bio‐Tek, Synergy HT Multi‐Mode, plate reader. The % decrease in viability of sample‐treated cells was calculated compared with vehicle‐treated cells.^[ [46] ^]
structure (smiles),measurement,setting,value
"O=C1CCC(Cc2ccc(O)c(O)c2)O1 (stereo not drawn) [VL, 5‐(3′,4′‐dihydroxyphenyl)‐γ‐valerolactone]","PXR transcriptional activity, fold increase vs vehicle",PXR,does not increase the PXR activity; also recorded: < twofold
same,VL metabolized in the liver fraction,"[1]; S9 liver fraction, 120 min",70.83%
same,intrinsic clearance,"[1]; human S9 fraction 1 mg/mL, 10 µM",0.784 µM/min
same,half-life at 10 µM,"[1]; liver S9 fraction, pH 7.4, human S9 fraction 1 mg/mL, 10 µM, NADPH + UDPGA, read-out: half‐life t ½",8.72 min
same,stability under negative control experimental conditions,"[1]; reaction enzymes replaced with water, data not shown",stable
same,viability at 6 h,MTT cell viability assay,> 90%
